Reference: patent US12570698B2, “Stabilized peptides for covalent binding to target protein” (Dana-Farber Cancer Institute, Inc., priority 2015, dated 2026)
Bridge positions count the residues as written; N and C are the ends. Square brackets hold non-standard residues; d marks the D form. Ends that are not written are not given here. S5 = C=CCCC[C@](C)(N)C(=O)O

What was measured:
A375P cells = assay: Cell viability (CellTiter-Glo); type: cell-based, human; details: 40 μM, over time
Procedure: We confirmed by LDH release assay that BIM SAHBs had no membranolytic effect on the cells (FIG. 16B). The observed cytotoxicity was instead consistent with mitochondrial apoptosis induction, as reflected by time-responsive caspase 3/7 activation (FIG. 16C) and mitochondrial cytochrome c release (FIG. 16D).
(§1) Cell Viability, LDH Release, and Caspase-3/7 Activation Assays: Cancer cells were cultured using their standard culture media containing 10% FBS and penicillin/streptomycin (A375P: DMEM; SK-MEL-2, SK-MEL-28 and MCF-7: EMEM; A549, H929: RPMI). […] Cell viability and caspase 3/7 activation was measured using CellTiter-Glo and Caspase-Glo 3/7 chemiluminescence reagents (Promega), respectively, and luminescence detected by a microplate reader (Spectramax M5, Molecular Devices). LDH release was quantified after 30 min peptide incubation by plate centrifugation at 1500 rpm for 5 min at 4° C., transfer of 100 μL cell culture media to a clear plate (Corning), incubation with 100 μL LDH reagent (Roche) for 30 min while shaking, and measurement of absorbance at 490 nm on a Spectramax M5 microplate reader.

SK-MEL-28 = assay: Cytotoxicity and caspase 3/7 activation; type: cell-based; details: BFL-1 expressing melanoma line; data not shown
Procedure: as §1

H929 = assay: Cytotoxicity and caspase 3/7 activation; type: cell-based; details: non-melanoma line; data not shown
Procedure: as §1

SK-MEL-2 = assay: Cytotoxicity and caspase 3/7 activation; type: cell-based; details: BFL-1 expressing melanoma line; data not shown
Procedure: as §1

A549 = assay: Cytotoxicity and caspase 3/7 activation; type: cell-based; details: non-melanoma line; data not shown
Procedure: as §1

MCF7 = assay: Cytotoxicity and caspase 3/7 activation; type: cell-based; details: non-melanoma line; data not shown
Procedure: as §1

Bfl-1 [1] = molecular target: T1, Bfl-1 (Homo sapiens, UniProt Q16548); assay: Bfl-1: Warhead SAHB conjugation assay; type: binding; details: warhead SAHBs, reducing conditions
T1 sequence (Q16548 1-175): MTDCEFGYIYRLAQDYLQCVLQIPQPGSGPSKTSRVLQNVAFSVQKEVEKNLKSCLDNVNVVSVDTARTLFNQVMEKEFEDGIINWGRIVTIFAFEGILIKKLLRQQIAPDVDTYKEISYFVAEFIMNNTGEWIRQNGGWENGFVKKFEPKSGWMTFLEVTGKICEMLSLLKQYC
Procedure: Various warhead SAHBs were tested in conjugation assays with Bfl-1. For this series of peptides the warhead at position J was selected from those depicted below.
10 μM Bfl-1 was reduced with DTT, then incubated with 3:1 molar ratio of warhead SAHB. Samples were then combined with loading dye, run on a 12% Bis-Tris SDS-PAGE, and stained with Coomassie. The same setup was used for all antiapoptotic proteins tested.

MCL-1 = molecular target: T2, MCL-1 (Homo sapiens, UniProt Q07820); assay: SA pull-down from A375P lysates, MCL-1 western; type: binding; details: biotinylated SAHBs
T2 construct: we incubated A375P lysates with the corresponding biotinylated BIM SAHBs; endogenous in cells; host or cells: A375P melanoma cell lysate

HA-BFL-1ΔC C4S/C19S = molecular target: T3, HA-BFL-1ΔC C4S/C19S (Homo sapiens, UniProt Q16548, C19S/C4S); assay: Competition with tBID in 293T lysates (immunoprecipitation); type: binding; details: 5 μM biotinylated peptide, 0.25 μM tBID, 6 h RT
T3 construct: BFL-1ΔC (aa 1-153); expressed in transfected cells; host or cells: 293T cells, pCMV plasmid, transient
T3 sequence (Q16548 1-153 C4S/C19S): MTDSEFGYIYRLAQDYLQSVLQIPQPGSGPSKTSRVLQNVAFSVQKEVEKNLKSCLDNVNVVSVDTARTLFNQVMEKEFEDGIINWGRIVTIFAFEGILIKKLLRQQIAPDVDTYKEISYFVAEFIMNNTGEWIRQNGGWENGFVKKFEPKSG
Procedure: Protein concentration of the soluble fraction was measured using a BCA kit according to manufacturer's instructions (Thermo Scientific). […] After 24 h, cells were trypsinized, washed with PBS, lysed in 1% CHAPS buffer, and the supernatant collected for protein concentration determination by BCA kit. […] Cells were harvested and lysed as above, and incubated overnight with anti-HA agarose beads (Pierce). The beads were washed 3 times with lysis buffer, eluted by boiling in LDS buffer, and subjected to western analysis with HA and biotin antibodies. […] Biotin capture was accomplished by incubating the mixture with high-capacity SA agarose (Thermo Scientific) for 2 h at 4° C., followed by centrifugation and washing the pelleted beads with 3×1 mL lysis buffer.

FLAG-MCL-1 = molecular target: T4, FLAG-MCL-1 (Homo sapiens, UniProt Q07820); assay: as above; type: binding; details: 5 μM biotinylated peptide, 0.25 μM tBID, 6 h RT
T4 construct: expressed in transfected cells; host or cells: 293T cells, p3×FLAG-CMV-10 vector, transient
Procedure: 293T cells were maintained in DMEM containing 10% FBS and penicillin/streptomycin, and transfections performed with 2 μg pCMV plasmid containing HA-BFL-1ΔC C4S/C19S using X-tremeGENE 9 (Roche). For lysate experiments, cells were trypsinized 24 hours post-transfection, washed with PBS, and lysed by incubation with 1% CHAPS lysis buffer (150 mM NaCl, 50 mM Tris pH 7.4, 100 mM DTT). Protein concentration of the soluble fraction was measured using a BCA kit according to manufacturer's instructions (Thermo Scientific). […] Samples were then boiled in LDS buffer and subjected to western analysis using 1:1000 dilutions of HA (Sigma-Aldrich, #12CA5) and biotin (Abcam, #53494) antibodies. To evaluate the capacity of biotinylated SAHBs to compete with tBID for interactions with BFL-1 and MCL-1, 293T cells were transfected with either HA-BFL-1ΔC C4S/C19S or FLAG-MCL-1 in the p3×FLAG-CMV-10 vector (Sigma) as above. After 24 h, cells were trypsinized, washed with PBS, lysed in 1% CHAPS buffer, and the supernatant collected for protein concentration determination by BCA kit. […] The mixtures were then subjected to HA or FLAG (Sigma-Aldrich, F7425) immunoprecipitation, followed by western analysis using 1:1000 dilutions of HA, FLAG, biotin, and BID (Santa Cruz sc-11423) antibodies. […] Cells were harvested and lysed as above, and incubated overnight with anti-HA agarose beads (Pierce). […]

Bfl-1 [2] = molecular target: T1, Bfl-1; assay: Competitive binding assay after pre-forming the Bfl-1:NOXA disulfide bond; details: Bfl-1:NOXA disulfide bond pre-formed
Procedure: The functional impact of the Bfl-1:NOXA disulfide bond formation was evaluated using competitive binding assays and liposomal release assays.

T4 sequence (Q07820 whole entry): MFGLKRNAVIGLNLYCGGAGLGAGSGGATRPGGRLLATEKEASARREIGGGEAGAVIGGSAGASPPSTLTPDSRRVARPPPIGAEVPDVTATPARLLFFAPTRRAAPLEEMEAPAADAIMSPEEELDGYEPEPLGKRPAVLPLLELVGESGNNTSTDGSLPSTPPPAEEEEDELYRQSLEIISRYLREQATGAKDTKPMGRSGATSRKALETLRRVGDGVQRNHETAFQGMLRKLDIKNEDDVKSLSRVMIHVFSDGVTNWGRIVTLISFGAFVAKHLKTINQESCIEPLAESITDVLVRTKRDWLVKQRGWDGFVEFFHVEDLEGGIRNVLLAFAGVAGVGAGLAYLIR

Molecule: C=CC(=O)N1CCC[C@@H](C(=O)N[C@H](C(=O)N[C@@H](C)C(=O)N[C@@H](CCC(N)=O)C(=O)N[C@@H](CCC(=O)O)C(=O)N[C@@H](CC(C)C)C(=O)N[C@@H](CCCNC(=N)N)C(=O)N[C@@]2(C)CCCC=CCCC[C@@](C)(C(=O)N[C@@H](Cc3ccccc3)C(=O)N[C@@H](CC(N)=O)C(=O)N[C@@H](C)C(=O)N[C@@H](Cc3ccc(O)cc3)C(=O)N[C@@H](Cc3ccc(O)cc3)C(=O)N[C@@H](C)C(=O)N[C@@H](CCCNC(=N)N)C(=O)N[C@@H](CCCNC(=N)N)C(N)=O)NC(=O)[C@H](CC(=O)O)NC(=O)CNC(=O)[C@H]([C@@H](C)CC)NC2=O)[C@@H](C)CC)C1 [BIM SAHBA-3]
- cytotoxicity compared to BIM SAHBA1 (A375P cells): significant enhancement in cytotoxicity over time
- enhancement in cytotoxicity and caspase 3/7 activation (SK-MEL-28): comparative enhancement in cytotoxicity and caspase 3/7 activation
- enhancement in cytotoxicity and caspase 3/7 activation (H929): no evidence of this phenomenon
- enhancement in cytotoxicity and caspase 3/7 activation (SK-MEL-2): comparative enhancement in cytotoxicity and caspase 3/7 activation
- enhancement in cytotoxicity and caspase 3/7 activation (A549): no evidence of this phenomenon
- enhancement in cytotoxicity and caspase 3/7 activation (MCF7): no evidence of this phenomenon

Molecule: O=C(O)[C@H]1CCCCN1 [D-homoproline]
- covalent binding efficiency (Bfl-1 [1]): less efficient

Molecule: O=C(O)[C@@H]1CCCCN1 [L-homoproline]
- covalent binding efficiency (Bfl-1 [1]): less efficient

Molecule: CN(C)C/C=C/C(=O)O [trans-4-dimethylaminocrotonic acid]
- covalent binding efficiency (Bfl-1 [1]): less efficient

Molecule: BIM SAHBA: BIM SAHBA (aa 147-166), corresponding construct lacking the acrylamide-based warhead
- binding to MCL-1 (MCL-1): equivalent binding to anti-apoptotic MCL-1
- competition with tBID for HA-BFL-1 binding (HA-BFL-1ΔC C4S/C19S): incapable of competing with tBID for HA-BFL-1 binding
- competition with tBID for FLAG-MCL-1 (FLAG-MCL-1): equally effective at competing with tBID

Molecule: NOXA SAHBA C25S: NOXA SAHBA with C25S mutation; SEQ ID NO: 128 (AELEVESATQLR[S5]FGD[S5]LNFRQKLL; staple 13-17; not fully specified)
- availability of the Bfl-1 binding pocket to another FITC BH3 domain (Bfl-1 [2]): abrogated these inhibitory effects
